Experiments:
129E^-/- = experiment: Lesion analysis (Oil red O, aortic sinus and valve) in atherosclerotic mice; assay type: in vivo; set-up: Lesion size: unit not given here; settings: chow diet; for Sinus (% lesion) / Valve (%lesion): 129E^-/-, F, mean ±SD
Description: (§1) Mouse line derivation. Genetically modified apolipoprotein E-deficient (ApoE^-/-), low density lipoprotein (LDL) receptor-deficient (LDLr^-/-), and monocyte chemoattractant protein-1-deficient (MCP-1^-/-) mice used in the present study have been previously described and characterized [See Rutledge, B.J. et. al., J. Immunol., 1995;155:4838-4843; and Nakashima Y, et. al., Arterioscler. Thromb., 1994;14(1):133-140]. To obtain mice homozygous for both the apoE and MCP-1 (ScyA2) null alleles, male ApoE^-/- mice on a C57B/6 background (C57E^- ^/-) were mated with heterozygous female MCP-1^-/+ mice on a C57B/6 background. The resulting ApoE^-/- x MCP-1^-/+ progeny were identified by Southern blot analysis and inbred to produce ApoE^-/- x MCP-1^-/- (C57E^-/- x MCP-1 ^-/-) and control ApoE ^-/- x MCP-1^+/+ (C57E-/-) mice. ApoE^-/- mice on the mixed genetic background 1290la x C57B/6 (129E^-/-) were bred in-house and derived from brother and sister matings. All mice were weaned at 21 days, maintained on a 12 hour light/dark cycle and fed either a chow or a Western-type diet [See, Bourassa, P.K., et. al., Proc Natl Acad. Sci. USA, 1996;93:10022-10027].
(§2) Administration of Compound. Compound of formula I, preferably (3S, 4R)-7-(2-carboxy-5-trifluoromethylphenyl)-4-hydroxy-3-benzyl-3,4-dihydro-2H-1-benzopyran, was evaluated for its effects on lesion development in age-matched groups of mice (15 to 30 weeks of age at time of sacrifice) using a 35 day treatment protocol. Subgroups of mice were treated with (3S, 4R)-7-(2-carboxy-5-trifluoromethylphenyl)-4-hydroxy-3-benzyl-3,4-dihydro-2H-1-benzopyran for shorter times (7-14 days) for evaluation of acute changes in tissue gene expression as noted in the table and figure legends. In all study groups, the compound was administered by oral gavage once daily in a vehicle comprised of 0.6% Tween 80 + 0.25% methylcellulose in PBS. […]
(§3) Lesion Analysis. To determine cross-sectional lesion area, hearts were perfusion-fixed in 4% paraformaldehyde, infiltrated with 30% gum sucrose for 24 hours at 4°C, and embedded in OCT compound and sectioned 10µm, -18°C, as previously described [See Borgeat P., et.al., J. Biol. Chem., 1979;254:2643-2646] and the sections were stained with Oil red O (Polyscientific, Bay Shore NY) and counterstained with Gill III hematoxylin (Sigma, St. Louis MO). Each section of the aortic valve was evaluated for Oil red O staining area by capturing images directly from a RGB camera attached to a Leitz Laborlux S (Leica) light microscope for display on a Trinitron RGB monitor. Image analysis was performed using ImagePro 3.1' software as described previously [See Bourassa, P.K., et. al., Proc Natl. Acad. Sci. USA, 1996;93:10022-10027]. Results are expressed as the average lesion size per section or as the percent of the total cross sectional vessel wall stained with Oil red O. For each animal, the average lesion area of 12-16 sections was determined and data are expressed as lesion size or mean percent lesion area ±S.D.
Referring to Table 2, Apolipoprotein E-deficient mice on a mixed 129Io/B6 (129E^-/-) or a C57BI/6 background (C57E^-/-), mice homozygous low density lipoprotein receptor deficient mice LDLR^-/- mice were treated for 35 days orally with (3S, 4R)-7-(2-carboxy-5-trifluoromethylphenyl)-4-hydroxy-3-benzyl-2H-1-benzopyran) at doses indicated. LDLR^-/- was fed a Western diet; all other strains were maintained on chow diet. The mean percent lesion area in 10 µ sections of the aortic sinus and valve region was calculated following oil red O staining, Values are reported as means ±SD. The term "ND" is defined as Not Determined. The term "TPC" is defined as Total Plasma Cholesterol. The term "TG" is defined as Triglycerides. The term "sinus" is defined as a region of the aortic válve; moving up from the base of the heart; which begins at the first appearance of the aortic valve cusps, dividing the lumen into three distinct regions. In the sinus, the aortic wall is bulging and irregular. […]

MCP-1 ^-/- X ApoE^-/- = experiment: Lesion analysis (Oil red O, aortic sinus and valve) in MCP-1 deficient mice; assay type: in vivo; settings: M, mean ±SD
Description: as §1
(§4) Administration of Compound. Compound of formula I, preferably (3S, 4R)-7-(2-carboxy-5-trifluoromethylphenyl)-4-hydroxy-3-benzyl-3,4-dihydro-2H-1-benzopyran, was evaluated for its effects on lesion development in age-matched groups of mice (15 to 30 weeks of age at time of sacrifice) using a 35 day treatment protocol. Subgroups of mice were treated with (3S, 4R)-7-(2-carboxy-5-trifluoromethylphenyl)-4-hydroxy-3-benzyl-3,4-dihydro-2H-1-benzopyran for shorter times (7-14 days) for evaluation of acute changes in tissue gene expression as noted in the table and figure legends. In all study groups, the compound was administered by oral gavage once daily in a vehicle comprised of 0.6% Tween 80 + 0.25% methylcellulose in PBS. Mice received either vehicle alone, 30mg/kg/day, or 100mg/kg/day of compound of formula I.
as §3
Referring to Table 4, mice homozygous for the null alleles of Monocyte chemoattractant protein-1 (MCP-1^-/-) and apolipoprotein E (ApoE^-/-) (MCP-1 ^-/- X ApoE^-/-) on a C57bl/6 background (C57E^-/-) mice were treated for 35 days orally with (3S, 4R)-7-(2-carboxy-5-trifluoromethylphenyl)-4-hydroxy-3-benzyl-2H-1-benzopyran) at doses indicated 0, 30 or 100mg/kg. The mean percent lesion area in 10 µ sections of the aortic sinus and valve region was calculated following oil red O staining, Values are reported as means ±SD. The term "ND" is defined as Not Determined. The term "TPC" is defined as Total Plasma Cholesterol. The term "TG" is defined as Triglycerides. The term "sinus" is defined as a region of the aortic valve; moving up from the base of the heart; which begins at the first appearance of the aortic valve cusps, dividing the lumen into three distinct regions. […]

LDLr^-/- = experiment: Lesion analysis (Oil red O, aortic sinus and valve) in atherosclerotic mice; assay type: in vivo; set-up: Lesion size: unit not given here
Description: as §1
Administration of Compound. Compound of formula I, preferably (3S, 4R)-7-(2-carboxy-5-trifluoromethylphenyl)-4-hydroxy-3-benzyl-3,4-dihydro-2H-1-benzopyran, was evaluated for its effects on lesion development in age-matched groups of mice (15 to 30 weeks of age at time of sacrifice) using a 35 day treatment protocol. […]
Lesion Analysis. […] Each section of the aortic valve was evaluated for Oil red O staining area by capturing images directly from a RGB camera attached to a Leitz Laborlux S (Leica) light microscope for display on a Trinitron RGB monitor. […] Results are expressed as the average lesion size per section or as the percent of the total cross sectional vessel wall stained with Oil red O. For each animal, the average lesion area of 12-16 sections was determined and data are expressed as lesion size or mean percent lesion area ±S.D. […]

CD11b = experiment: Immunohistochemical staining of macrophages (CD11b) in atherosclerotic lesions; assay type: in vivo, mice; settings: 30 mg/kg/d orally for 35 days, mean ± SD, N=8/group
Description: as §4
Immunohistochemical Staining of Macrophages. Serial paraformaldehyde fixed, OCT embedded sections of aortic valves were immunostained for macrophages using rat monoclonal antibodies (IgG2b) against MOMA-2 (BioSource) and CD11b (Pharmingen). Endogenous biotin and peroxidase activity were blocked by incubating each section with an avidin/biotin solution (Vector Laboratories), and 0.3% H2O2 in 1% bovine serum, respectively. […] Results are expressed as the percent of the total cross-sectional vessel wall area (normal + diseased area/ section, excluding the lumen) stained with DAB. […]

C57E^-/- = experiment: Lesion analysis (Oil red O, aortic sinus and valve) in atherosclerotic mice; assay type: in vivo; settings: 100 mg/kg orally 35 days, chow diet, mean ±SD
Description: as §1
as §2, with “legends.” for “legends. In all study groups, the compound was administered by oral gavage once daily in a vehicle comprised of 0.6% Tween 80 + 0.25% methylcellulose in PBS.”
Lesion Analysis. […] Each section of the aortic valve was evaluated for Oil red O staining area by capturing images directly from a RGB camera attached to a Leitz Laborlux S (Leica) light microscope for display on a Trinitron RGB monitor. […] Results are expressed as the average lesion size per section or as the percent of the total cross sectional vessel wall stained with Oil red O. For each animal, the average lesion area of 12-16 sections was determined and data are expressed as lesion size or mean percent lesion area ±S.D.
Referring to Table 2, Apolipoprotein E-deficient mice on a mixed 129Io/B6 (129E^-/-) or a C57BI/6 background (C57E^-/-), mice homozygous low density lipoprotein receptor deficient mice LDLR^-/- mice were treated for 35 days orally with (3S, 4R)-7-(2-carboxy-5-trifluoromethylphenyl)-4-hydroxy-3-benzyl-2H-1-benzopyran) at doses indicated. […] The mean percent lesion area in 10 µ sections of the aortic sinus and valve region was calculated following oil red O staining, Values are reported as means ±SD. The term "ND" is defined as Not Determined. […]

[1] = Body weight of treated mice; assay type: in vivo
Description: as §2

[2] = 15 wks, 30 mg/kg orally 35 days
[3] = 15 wks, 50 mg/kg orally 35 days
[4] = 15 wks, 100 mg/kg orally 35 days
[5] = 20 wks, 30 mg/kg orally 35 days
[6] = 24 wks, 100 mg/kg orally 35 days
[7] = 30 wks, 30 mg/kg orally 35 days
[8] = 30 wks, 100 mg/kg orally 35 days
[9] = LDLr^-/-, M, 18 wks, 30 mg/kg orally 35 days, Western diet, mean ±SD

## O=C(O)c1ccc(C(F)(F)F)cc1-c1ccc2c(c1)OC[C@H](Cc1ccccc1)[C@H]2O [(3S, 4R)-7-(2-carboxy-5-trifluoromethylphenyl)-4-hydroxy-3-benzyl-3,4-dihydro-2H-1-benzopyran]
129E^-/-; [2]
  Sinus (% lesion): 19.6±2%
  Valve (%lesion): 21.6±2%
129E^-/-; [3]
  Sinus (% lesion): 14.7±2 %
  Valve (%lesion): 16.3±2 %
129E^-/-; [4]
  Sinus (% lesion): 7.9±1 %
  Valve (%lesion): 8.0±2 %
129E^-/-; [5]
  Sinus (% lesion): 24.4±3%
  Valve (%lesion): 25.9±3 %
129E^-/-; [6]
  Sinus (% lesion): 30.0±1%
  Valve (%lesion): 34.0±1%
129E^-/-; female 129E^-/-, 30 mg/kg/d orally for 35 days, mean ± SD, N=8/group
  Lesion size: 10650±12133
MCP-1 ^-/- X ApoE^-/-; [2]
  Sinus (% lesion): 13.3±2%
  Valve (%lesion): 12.8±2%
MCP-1 ^-/- X ApoE^-/-; [4]
  Sinus (% lesion): 9.8±1%
  Valve (%lesion): 9.7±1%
MCP-1 ^-/- X ApoE^-/-; [7]
  Sinus (% lesion): 41.4±5%
  Valve (%lesion): 54.2±7%
MCP-1 ^-/- X ApoE^-/-; [8]
  Sinus (% lesion): 43.1±5%
  Valve (%lesion): 50.0±4%
LDLr^-/-; [9]
  Sinus (% lesion): 5.6±2 %
  Valve (%lesion): 6.5±3 %
LDLr^-/-; male LDLr^-/-, Western-type diet, 30 mg/kg/d orally for 35 days, mean ± SD, N=8/group
  Lesion size: 19955±7278
CD11b; female 129E^-/-, chow diet
  % CD11b (mean percent of the lesion staining positively for CD11b): 3.5±1.0 %
CD11b; male LDLr^-/-, Western-type diet
  % CD11b (mean percent of the lesion staining positively for CD11b): 3.5±2.5 %
C57E^-/-; F, 22 wks
  Sinus (% lesion): 38.8±3%
  Valve (%lesion): 39±2%
C57E^-/-; M, 16 wks
  Sinus (% lesion): 10.4±3 %
  Valve (%lesion): 7.8±2 %
[1]; 129E^-/-, F, 15 wks, 30 mg/kg orally 35 days, chow diet
  Body wt(gm): 26±2 gm
[1]; 129E^-/-, F, 15 wks, 50 mg/kg orally 35 days, chow diet
  Body wt(gm): 25±2 gm
[1]; 129E^-/-, F, 15 wks, 100 mg/kg orally 35 days, chow diet
  Body wt(gm): 25±1 gm
[1]; 129E^-/-, F, 20 wks, 30 mg/kg orally 35 days, chow diet
  Body wt(gm): 29±1 gm
[1]; 129E^-/-, F, 24 wks, 100 mg/kg orally 35 days, chow diet
  Body wt(gm): 31±1 gm
[1]; C57E^-/-, F, 22 wks, 100 mg/kg orally 35 days, chow diet
  Body wt(gm): 30 gm
[1]; C57E^-/-, M, 16 wks, 100 mg/kg orally 35 days, chow diet
  Body wt(gm): 29±1 gm
[1]; LDLr^-/-, M, 18 wks, 30 mg/kg orally 35 days, Western diet
  Body wt(gm): 31±2 gm
[1]; MCP-1 ^-/- X ApoE^-/-, M, 15 wks, 30 mg/kg orally 35 days
  Body wt(gm): 29±1 gm
[1]; MCP-1 ^-/- X ApoE^-/-, M, 15 wks, 100 mg/kg orally 35 days
  Body wt(gm): 29±1 gm
[1]; MCP-1 ^-/- X ApoE^-/-, M, 30 wks, 30 mg/kg orally 35 days
  Body wt(gm): 31±1 gm
[1]; MCP-1 ^-/- X ApoE^-/-, M, 30 wks, 100 mg/kg orally 35 days
  Body wt(gm): 26±1 gm
